In brackets after ≈: the same amount, converted by molar mass. Like-named read-outs stand apart in the source and are kept apart here. Where a SMILES comes first, the peptide text is derived from it. [ ]: non-standard residue; d: D form. Gly(N(CH2)2(3-indolyl)) = O=C(O)CNCCc1c[nH]c2ccccc12; Nspe = C[C@H](NCC(=O)O)c1ccccc1; Nlys = NCCCCNCC(=O)O
How the values were obtained:
E. coli ATCC25922 = system: E. coli ATCC25922
In short: (§1)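 Cation-adjusted MHB2 cultures (18 h, subcultured 4 h) adjusted to 2×10^5–5×10^5 CFU/mL in medium with 0.02% BSA and 0.001% acetic acid.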

S. aureus ATCC 25923 = system: S. aureus ATCC 25923
In short: as §1

E. coli KCTC 2411 = assay: MIC in multidrug-resistant bacteria, modified microdilution method; type: cell-based; conditions: Table 14
Protocol: (§2) The MIC of the prepared peptoid in multidrug-resistant bacteria was measured using a modified microdilution method in a Difco Mueller Hinton medium, and a test was performed on a bacterial pathogen panel with resistant and tolerance to general antibiotics.
(§3) Briefly, a medium containing bovine serum albumin and 0.001% acetic acid was used to continuously dilute a peptoid concentrate 10-times stronger than the final concentration. 10 uμL of the 10-time stronger peptoid concentrate and 90 μL of a Muleller Hinton medium were added to each well of a 96-well plate. Bacteria were added to the plate until the final concentration reached 2×10^5 CFU/mL and then incubated at […] overnight. MIC was defined as a concentration at which bacterial growth is not observed.

[1] = system: Enterobacter SP KCTC 2625; assay: as above; type: cell-based; conditions: Table 14
Protocol: as §2, §3

[2] = system: Enterococcus Faecium KCTC 13225; assay: as above; type: cell-based; conditions: Table 14
Protocol: as §2, §3

[3] = system: Enterococcus faecalis KCTC 3511; assay: as above; type: cell-based; conditions: Table 14
Protocol: as §2, §3

in vitro = conditions: human, LC50 MRC-5
Protocol: (§4) Human lung cells (MRC-5) were purchased from the Korean Cell Line Bank, and human keratinocytes (HaCaT) were purchased from the AmorePacific R&D Center. All cells were grown in a Dulbecco's modified Eagle's medium containing 10% fetal bovine serum under conditions of 5% CO2 and 37° C. To confirm the effect of a peptoid on cell growth, 3-(4,5-dimethylthiazol-2-yl)-5-(3-carboxymethoxyphenyl)-2-(4-sulfophenyl)-2H-tetrazolium (MTS) cell assay was performed to determine cell viability. An aliquot (100 μL) of a batch including 1.3×10^4 MRC-5 cells/mL or 3×10^4 HaCaT cells/mL was dispensed into each well of a 96-well plate. The cells were grown at 37° C. in a 5% CO2 humid atmosphere and allowed to adhere for 24 hours. When the cells reached approximately 70% confluency, the medium was replaced with serial dilutions of the peptoid stock and incubated for 24 hours. 20 μL of a CellTiter 96 aqueous non-radioactive cell proliferation assay reagent (Promega, USA) including a tetrazolium compound was added to each well.
(§5) The contents in the plate were metabolized by incubating at 37° C. for 4 hours. An MTS-formazan product of viable cells was measured at 490 nm using a microplate reader, and cell viability (%) was calculated by Equation 2 below and compared with untreated cells.
(§6) Cell viability (%)=[A/(Acontrol)]×100 [Equation 2]
(§7) In Equation 2, A is the absorbance of a test well, and Acontrol is the average absorbance of a well containing untreated cells.
(§8) The term “nd” shown in Table 19 below is the abbreviation for not determined, and indicates a value that is too small or too large to be measured.

[4] = HPLC to confirm peptoid decomposition after counter ion substitution; type: physicochemical; conditions: HPLC at 220 nm; HCl and AcOH
Protocol: FIGS. 76 to 83 are the HPLC results for Peptoids 1, 10, 11, 14, 15, 29, 32 and 37 of the present inventive concept to confirm the decomposition of the peptoids after counter ion substitution using (a) HCl and (b) AcOH.
Referring to FIGS. […], HPLC was performed for Peptoids 1, 10, 11, 14, 15, 29, 32 and 37 of the present inventive concept. Since the chloride (HCl) is a stronger acid than TFA, it can decompose acid-vulnerable peptoid compounds.

red blood cells = assay: Hemolysis assay; type: cell-based, Sprague-Dawley mouse
In short: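 Peptoid is mixed with 10% (v/v) PBS-washed erythrocytes (male Sprague-Dawley […], 13 weeks) and held 1 h at 37 °C. Hemolysis is calculated from 540 nm absorbance of the supernatant, with PBS as 0% and Triton X-100 as 100%.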

Human lung cells (MRC-5) = assay: in vitro
Protocol: as §4, §5, §6, §7, §8

[5] = system: human keratinocytes (HaCaT); assay: in vitro
Protocol: as §4, §5, §6, §7, §8

[6] = Table 18, TFA salt vs counter ion-substituted (HCl, AcOH) peptoids
[7] = Tables 11-13, 24 hours at 37° C., maximum concentration 25 μM
[8] = Table 18, TFA salt vs counter ion-substituted peptoids

C[C@@H](c1ccccc1)N(CC(=O)N(CCCCN)CC(=O)N(CC(=O)N(CC(=O)N(CCCCN)CC(=O)N(CC(=O)N(CC(=O)N(CCCCN)CC(=O)N(CCc1c[nH]c2ccccc12)CC(=O)N(CCc1c[nH]c2ccccc12)CC(N)=O)[C@@H](C)c1ccccc1)[C@@H](C)c1ccccc1)[C@@H](C)c1ccccc1)[C@@H](C)c1ccccc1)C(=O)CN(C(=O)CNCCCCN)[C@@H](C)c1ccccc1 [Peptoid 11, H-NLys-Nspe-Nspe-NLys-Nspe-Nspe-NLys-Nspe-Nspe-NLys-NhTrp-NhTrp-NH2] (H-[Nlys][Nspe][Nspe][Nlys][Nspe][Nspe][Nlys][Nspe][Nspe][Nlys][Gly(N(CH2)2(3-indolyl))][Gly(N(CH2)2(3-indolyl))]-NH2)
MIC E. coli ATCC25922 (E. coli ATCC25922; [6]): 3.1 µM | MIC E. coli ATCC25922 (E. coli ATCC25922; [7]): 6.3 µM (≈ 12 µg/mL) | MIC S. aureus ATCC 25923 (S. aureus ATCC 25923; [6]): 1.6 µM | MIC S. aureus ATCC 25923 (S. aureus ATCC 25923; [7]): 1.6 µM (≈ 3.04 µg/mL) | MIC E. coli KCTC 2411 (E. coli KCTC 2411): 12.5 µM (≈ 23.7 µg/mL) | MIC Enterobacter SP KCTC 2625 [1]: 6.3 µM (≈ 12 µg/mL) | MIC Enterococcus Faecium KCTC 13225 [2]: < 0.8 µM | MIC Enterococcus faecalis KCTC 3511 [3]: < 0.8 µM | CC50 at 24 h (in vitro): 6.9 µM | peptoid decomposition after counter ion substitution (in words) [4]: almost no peptoid decomposition occurred

C[C@@H](c1ccccc1)N(CC(N)=O)C(=O)CN(C(=O)CN(CCCCN)C(=O)CN(C(=O)CN(C(=O)CN(CCCCN)C(=O)CN(C(=O)CN(C(=O)CN(CCCCN)C(=O)CN(C(=O)CN(C(=O)CNCCCCN)[C@@H](C)c1ccccc1)[C@@H](C)c1ccccc1)[C@@H](C)c1ccccc1)[C@@H](C)c1ccccc1)[C@@H](C)c1ccccc1)[C@@H](C)c1ccccc1)[C@@H](C)c1ccccc1 [Peptoid 1-2, reference compound] (H-[Nlys][Nspe][Nspe][Nlys][Nspe][Nspe][Nlys][Nspe][Nspe][Nlys][Nspe][Nspe]-NH2)
MIC E. coli ATCC25922 (E. coli ATCC25922; [6]): 12.5 µM | MIC S. aureus ATCC 25923 (S. aureus ATCC 25923; [6]): 3.1 µM | HC10 (red blood cells; [8]): 25.0 µM | HC50 (red blood cells; [8]): 78.6 µM | Hmax (100 μM) (red blood cells; [8]): 58.2 ± 1.7% | CC50 (Human lung cells (MRC-5); read-out: LC50 MRC-5, 24 hours incubation, concentration that causes 50% cell lethality): 8.6 µM

C[C@@H](c1ccccc1)N(CC(=O)N(CCCCN)CC(=O)N(CCc1c[nH]c2ccccc12)CC(=O)N(CCc1c[nH]c2ccccc12)CC(N)=O)C(=O)CN(CCCCN)C(=O)CN(CCCCN)C(=O)CN(C(=O)CN(C(=O)CN(CCCCN)C(=O)CN(C(=O)CN(C(=O)CNCCCCN)[C@@H](C)c1ccccc1)[C@@H](C)c1ccccc1)[C@@H](C)c1ccccc1)[C@@H](C)c1ccccc1 [Peptoid 29-1] (H-[Nlys][Nspe][Nspe][Nlys][Nspe][Nspe][Nlys][Nlys][Nspe][Nlys][Gly(N(CH2)2(3-indolyl))][Gly(N(CH2)2(3-indolyl))]-NH2)
MIC E. coli ATCC25922 (E. coli ATCC25922; [6]): 12.5 µM | MIC S. aureus ATCC 25923 (S. aureus ATCC 25923; [6]): 12.5 µM | HC10 (red blood cells): >100/>100 μM | HC50 (red blood cells): >100/>100 μM | Hmax (100 μM) (red blood cells): 4.3 ± 0.3% | LC50 / animal cell toxicity, MRC-5 (in words) (Human lung cells (MRC-5)): LC50 values of the peptoids increase | LC50 / animal cell toxicity, HaCaT (in words) [5]: LC50 values of the peptoids increase

C[C@@H](c1ccccc1)N(CC(N)=O)C(=O)CN(CCCCN)C(=O)CN(CCCCN)C(=O)CN(C(=O)CN(C(=O)CN(CCCCN)C(=O)CN(C(=O)CN(C(=O)CN(CCCCN)C(=O)CN(CCc1c[nH]c2ccccc12)C(=O)CN(CCc1c[nH]c2ccccc12)C(=O)CNCCCCN)[C@@H](C)c1ccccc1)[C@@H](C)c1ccccc1)[C@@H](C)c1ccccc1)[C@@H](C)c1ccccc1 [Peptoid 32-1]
MIC E. coli ATCC25922 (E. coli ATCC25922; [6]): 6.3 µM | MIC S. aureus ATCC 25923 (S. aureus ATCC 25923; [6]): 6.3 µM | HC10 (red blood cells): >100/>100 μM | HC50 (red blood cells): >100/>100 μM | Hmax (100 μM) (red blood cells): 8.7 ± 0.6% | LC50 / animal cell toxicity, HaCaT (in words) [5]: LC50 values of the peptoids increase

Source: patent publication US20240226228A1, “ANTIMICROBIAL PEPTOID HAVING IMPROVED SELECTIVITY AND ANTIMICROBIAL COMPOSITION COMPRISING SAME” (priority 2021, published 2024)
